What is called IC50 is the concentration needed to halve the response being measured.

For 13 compounds, GI50 and IC50 results are on record in patent US12668584B2, “Heterocyclic compounds as kinase inhibitors for therapeutic uses” (National Health Research Institutes, priority 2019, dated 2026).

The test system of test [1] is BaF3-CSF1R-1600 cells (express ETV6-CSF1R fusion protein). Put plainly: MTS cell viability assay, BaF3-CSF1R-1600. Format: cell-based. The following applies: 72 h, read-out: Cellular Proliferation Assay BaF3-CSF1R GI50. As for the experimental part:
(§1) Studies were conducted to evaluate […] anticancer activity of certain compounds described in EXAMPLE 1 using 3-(4,5-dimethylthiazol-2-yl)-5-(3-carboxymethoxyphenyl)-2-(4-sulfophenyl)-2H-tetrazolium) (MTS) cell viability assays. Results from these studies are shown in Table 2 below (see columns 3 and 4).
(§2) The cell lines M-NFS-60 (ATCC® CRL-1838™) and BaF3-CSF1R-1600 were obtained from American Type Culture Collection (ATCC, Manassas, VA, USA). The stable BaF3-CSF1R-1600 cell line expresses ETV6-CSF1R fusion protein consisting of N-terminal ETS-variant gene 6 protein (ETV6 residues M1-G337) and CSF1R tyrosine kinase (CSF1R residues L533-C972). The M-NSF-60 and BaF3-CSF1R-1600 cells were cultured in RPMI1640 medium supplemented with 10% fetal bovine serum, 0.05 mM 2-ME, 10 U/ml penicillin, and 10 µg/ml streptomycin at 37° C. and 5% CO2.
(§3) M-NFS-60 and BaF3-CSF1R-1600 cells were seeded in 96-well plates at a density of 10000 cells/100 μl and 8000 cells/100 μl per well, respectively, for 16 h and treated with vehicle or various concentrations of test compounds in medium for 72 h. Viable cells were quantified using the MTS method (Promega, Madison, WI, USA) according to manufacturer's recommended protocol. The results were determined by measuring absorbance at 490 nm using a plate reader (Victor 2). The GI50 value was defined as the amount of compound that caused 50% reduction in cell viability in comparison with DMSO-treated (vehicle) control and was calculated using Prism GraphPad Prism version 6 software (GraphPad).
Background: Tetrazolium dyes change colour on reduction, which living cells bring about.

The subject of test [2] is M-NFS-60 cells. The experiment in a line: MTS cell viability assay, M-NFS-60. Format: cell-based. The following applies: 72 h, read-out: Cellular Proliferation Assay M-NFS-60 (nM) GI50. The procedure:
as §1, §2, §3

Test [3] deals with T1, CSF1R kinase (recombinant N-terminal GST-CSF1R, residues L534-C972) (Homo sapiens, UniProt P07333).
T1 construct: Recombinant N-terminal GST-CSF1R (CSF1R residues L534-C972) containing the CSFIR kinase domain; made in house; host or cells: Sf9 insect cells
T1 sequence (P07333 534-972): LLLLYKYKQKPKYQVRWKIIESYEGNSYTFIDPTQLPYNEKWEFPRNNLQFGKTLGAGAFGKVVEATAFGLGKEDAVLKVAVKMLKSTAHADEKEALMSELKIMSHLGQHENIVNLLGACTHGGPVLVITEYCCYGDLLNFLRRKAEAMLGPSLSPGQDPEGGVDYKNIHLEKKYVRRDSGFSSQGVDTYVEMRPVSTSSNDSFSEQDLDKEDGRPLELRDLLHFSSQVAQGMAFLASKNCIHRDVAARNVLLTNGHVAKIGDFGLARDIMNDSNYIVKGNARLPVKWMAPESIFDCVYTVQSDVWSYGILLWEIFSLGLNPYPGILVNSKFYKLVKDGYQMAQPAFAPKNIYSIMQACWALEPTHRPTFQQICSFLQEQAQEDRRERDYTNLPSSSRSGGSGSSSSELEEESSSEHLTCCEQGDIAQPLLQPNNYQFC
Put plainly: CSF1R Kinase-Glo assay. Format: biochemical. The following applies: 40 μM ATP, 30° C. 180 min, read-out: Enzymatic Assay CSF1R enzyme IC50. As for the experimental part:
A study was conducted to test certain compounds described in EXAMPLE 1 in inhibiting CSF1R kinase activity.
Activity of CSF1R kinase was determined using a CSF1R Kinase-Glo assay. Recombinant N-terminal GST-CSF1R (CSF1R residues L534-C972) containing the CSFIR kinase domain was expressed in Sf9 insect cells and purified. The kinase assay was carried out in 96-well plates at 30° C. for 180 min with the tested compounds in a final volume of 50 μl including the following components: 25 mM Tris-HCl pH 7.4, 4 mM MnCl2, 10 mM MgCl2, 0.01% BSA, 0.5 mM NA3VO4, 0.02% Triton X-100, 40 μM ATP, 2 mM DTT and 20 μM poly(Glu,Tyr) 4:1 peptide, and 600 ng recombinant GST-CSF1R. Following incubation, 50 μl Kinase-Glo Plus Reagent (Promega, Madison, WI, USA) was added and the mixture was incubated at 25° C. for 20 min. A 70-μL aliquot of each reaction mixture was transferred to a black microtiter plate and luminescence was measured on Wallac Vector 1420 multilabel counter (PerkinElmer, Shelton, CT, USA). Percentage inhibition values were obtained by comparison of reaction rate with the rates in control wells (i.e., in the absence of test compound). IC50 values were calculated from a series of percentage inhibition values determined at a range of test compound concentrations using GraphPad Prism version 6 software (GraphPad, San Diego, CA, USA).
(In Kinase-Glo more light means more ATP remaining.)

Turning to `CN1CCN(c2ccc3c(Oc4ccc(NC(=O)NCc5ccc(C(F)(F)F)nc5)cc4)ncnc3c2)CC1` [Compound 28], the GI50 in test [1] is less than 20 nM; in test [2], 20 to 100 nM. The IC50 in test [3] was in the range of 20 to 100 nM.
With `COC1CCN(c2ccc3c(Oc4ccc(NC(=O)NCc5ccc(C(F)(F)F)nc5)cc4)ncnc3c2)CC1` [Compound 24], the GI50 in test [1] and in test [2] was 20 to 100 nM throughout. Further, the IC50 in test [3] is less than 20 nM.
For the compound `COC1CCN(c2ccc3c(Oc4ccc(NC(=O)Nc5cccc(Cl)c5)cc4)ncnc3c2)CC1` [Compound 17], the GI50 in test [1] and in test [2] was 20 to 100 nM throughout. Besides, in test [3], the IC50 was less than 20 nM.
As to `O=C(NCc1ccc(C(F)(F)F)nc1)Nc1ccc(Oc2ncnc3cc(N4CCN(C5COC5)CC4)ccc23)cc1` [Compound 98], the GI50 was less than 20 nM in test [1] and 20 to 100 nM in test [2]. Moreover, the IC50 in test [3] was less than 20 nM.
In the case of `CN(C)c1ccc2c(Oc3ccc(NC(=O)NCc4nccs4)cc3)ncnc2c1` [Compound 101], the GI50 in test [1] and in test [2] was 100 to 1000 nM each time. Also, the IC50 in test [3] lay within 20 to 100 nM.
As to `CN(C)c1ccc2c(Oc3ccc(NC(=O)NCCc4ccccc4)cc3)ncnc2c1` [Compound 58], the GI50 lay in the range of 20 to 100 nM in test [1] and 100 to 1000 nM in test [2]. Also, the IC50 in test [3] was less than 20 nM.
For the compound `O=C(NCc1ccc(C(F)(F)F)nc1)Nc1ccc(Oc2ncnc3cc(Br)ccc23)cc1` [Compound 31, 1-(4-((7-Bromoquinazolin-4-yl)oxy)phenyl)-3-((6-(trifluoromethyl)pyridin-3-yl)methyl)urea], the GI50 in test [1] is 100 to 1000 nM; in test [2], more than 1000 nM. Further, in test [3], the IC50 lay within 100 to 1000 nM.
For `CN(C)c1ccc2c(Oc3ccc(NC(=O)Nc4cccc(Cl)c4)cc3)ncnc2c1` [Compound 16], the GI50 in test [1] and in test [2] was 20 to 100 nM each time. Besides, in test [3], the IC50 was less than 20 nM.
As to `CN(C)c1ccc2c(Oc3ccc(NC(=O)NCc4ccc(OC(F)(F)F)cc4)cc3)ncnc2c1` [Compound 57], the GI50 in test [1] and in test [2] was 100 to 1000 nM in each case. The IC50 in test [3] was less than 20 nM.
With `O=C(Nc1ccccc1)Nc1ccc(Oc2ncnc3cc(N4CCC[C@@H]4CO)ccc23)cc1` [Compound 1], the GI50 in test [1] and in test [2] was 100 to 1000 nM throughout. Moreover, the IC50 in test [3] lay in the range of 20 to 100 nM.
On to `COc1ccc(NC(=O)Nc2ccc(Oc3ncnc4cc(N(C)C)ccc34)cc2)cc1` [Compound 21], for which the GI50 in test [1] and in test [2] was 20 to 100 nM throughout. Also, in test [3], the IC50 was less than 20 nM.
In the case of `O=C(NCc1ccc(C(F)(F)F)nc1)Nc1ccc(Oc2ncnc3cc(N[C@@H]4CCCC[C@H]4O)ccc23)cc1` [Compound 43], the GI50 in test [1] and in test [2] was 100 to 1000 nM in each case. The IC50 in test [3] lay in the range of 20 to 100 nM.
For the compound `O=C(NCc1ccc(C(F)(F)F)nc1)Nc1ccc(Oc2ncnc3cc(N4CCC(O)CC4)ccc23)cc1` [Compound 30, 1-(4-((7-(4-hydroxypiperidin-1-yl)quinazolin-4-yl)oxy)phenyl)-3-((6-(trifluoromethyl)pyridin-3-yl)methyl)urea], the GI50 in test [1] and in test [2] was 20 to 100 nM in each case. The IC50 in test [3] was less than 20 nM.
